Source: US5532234A, “Use of 1-[4-[4-aryl (or heteroaryl)-1-piperazinyl]-butyl)-1H-azole derivatives for the preparation of medicaments intended for the treatment of disorders of gastric secretion” (Laboratories Del Dr. Esteve, S.A., priority 1993, dated 1996)
Like-named read-outs stand apart in the source and are kept apart here.

Test system: gastric acid secretion
Assay: Inhibitory activity on gastric acid secretion, Shay Method (pylorus-ligated rats)
Assay type: in vivo, male Wistar rats
Conditions: Rattus norvegicus, 2 h; for ED50: read-out: ED50 (inhibition of gastric acid secretion); for inhibition in vivo at 40 mg/kg: intraduodenal, read-out: Percentage of inhibition of gastric acid secretion
Text: Inhibitory activity on gastric acid secretion, Shay Method [Shay, H., Komarov, S. A., Fels, S. S., Merange, D., Grvenstein, M., Siplet, H.: Gastroenterology, 5, 43 (1945)--Visscher, F. E., Seay, P. H., Taxelaar, A. P., Veldhamp, W., Vander Brook, M. J.: J. Pharmac. Exp. Ther., 110, 188 (1954)--"Animal Experiments in Pharmacological Analysis", F. R. Domer; C. C. Thomas Pub, Springfield, Ill., USA, 1970, p. 140].
In this test, male Wistar rats weighing 200 to 250 grams are used, which rats are denied food from the day prior to that of the test, with free access to water. Batches which each contain at least 4 animals are used.
The rats are anesthetized with ethyl ether, a laparotomy is carried out on them and their pylori are ligatured, and then the abdominal incision is stitched up. Administration of the products, with the vehicle for the control batch, is carried out intraduodenally (i.d.) before stitching up the abdominal incision. The dose administered for the first test is 40 mg/kg and the 50% effective dose (ED50) by the i.d. route is also determined in a second test. The vehicle used is 5% w/v gum arabic in doubly-distilled water.
Two hours after ligaturing the pylorus, the rats are sacrificed by prolonged anesthesia with ethyl ether and the volume of the gastric juice is measured and the total acidity is determined using a pH meter equipped with an automatic burette. The percentage of inhibition of the gastric acid secretion is determined, with respect to the control batch, for each product and for each dose tested.
The results obtained for some of the derivatives of the present invention are summarized, as non-limiting examples, in Table II.

[1] = i.d. route, rats, Shay Method, two hours after pylorus ligature
[2] = Dose = 40 mg/kg, i.d. route, rats, Shay Method, two hours after pylorus ligature

CN/C(=N/CCSCc1nc[nH]c1C)NC#N [Cimetidine, reference compound]
ED50: 11.5 mg/kg
inhibition in vivo at 40 mg/kg: 69%

c1cnc(N2CCN(CCCCn3cccc3)CC2)nc1 [Example 1]
ED50 [1]: 12 mg/kg
inhibition in vivo at 40 mg/kg [2]: 90%

c1cnc(N2CCN(CCCCn3c4ccccc4c4ccccc43)CC2)nc1 [Example 2]
ED50 [1]: 46 mg/kg
inhibition in vivo at 40 mg/kg [2]: 44%

c1cnc(N2CCN(CCCCn3ccc4ccccc43)CC2)nc1 [Example 3]
ED50 [1]: 30 mg/kg
inhibition in vivo at 40 mg/kg [2]: 63%

O=C(O)c1cnn(CCCCN2CCN(c3ncccn3)CC2)c1 [Example 6]
ED50 [1]: 52 mg/kg
inhibition in vivo at 40 mg/kg [2]: 41%

Cc1cc(C(F)(F)F)n(CCCCN2CCN(c3ncccn3)CC2)n1 [Example 7]
ED50 [1]: 47 mg/kg
inhibition in vivo at 40 mg/kg [2]: 40%

c1ccc(-c2nc(-c3ccccc3)n(CCCCN3CCN(c4ncccn4)CC3)c2-c2ccccc2)cc1 [Example 9]
ED50 [1]: 45 mg/kg
inhibition in vivo at 40 mg/kg [2]: 35%

Cc1nc(-c2ccccc2)c(-c2ccccc2)n1CCCCN1CCN(c2ncccn2)CC1 [Example 10]
ED50 [1]: 19 mg/kg
inhibition in vivo at 40 mg/kg [2]: 81%

Cc1nc(Cl)c(Cl)n1CCCCN1CCN(c2ncccn2)CC1 [Example 11]
ED50 [1]: 14 mg/kg
inhibition in vivo at 40 mg/kg [2]: 81%

CCc1nccn1CCCCN1CCN(c2ncccn2)CC1 [Example 12]
ED50 [1]: 52 mg/kg
inhibition in vivo at 40 mg/kg [2]: 37%

c1ccc(-c2nccn2CCCCN2CCN(c3ncccn3)CC2)cc1 [Example 13]
ED50 [1]: 45 mg/kg
inhibition in vivo at 40 mg/kg [2]: 44%

c1ccc(-c2cn(CCCCN3CCN(c4ncccn4)CC3)cn2)cc1 [Example 15]
ED50 [1]: 36 mg/kg
inhibition in vivo at 40 mg/kg [2]: 53%

c1cnc(N2CCN(CCCCn3cnc4ccccc43)CC2)nc1 [Example 16]
ED50 [1]: 25 mg/kg
inhibition in vivo at 40 mg/kg [2]: 71%

c1cnc(N2CCN(CCCCn3cnc4cccnc43)CC2)nc1 [Example 17]
ED50 [1]: 19 mg/kg
inhibition in vivo at 40 mg/kg [2]: 63%

c1cnc(N2CCN(CCCCn3nnc4ccccc43)CC2)nc1 [Example 19]
ED50 [1]: 42 mg/kg
inhibition in vivo at 40 mg/kg [2]: 49%

c1cnc(N2CCN(CCCCn3cncn3)CC2)nc1 [Example 21]
ED50 [1]: 4.4 mg/kg
inhibition in vivo at 40 mg/kg [2]: 71%

c1cnc(N2CCN(CCCCn3nc4ccccc4n3)CC2)nc1 [Example 22]
ED50 [1]: 34 mg/kg
inhibition in vivo at 40 mg/kg [2]: 55%

Cc1cc2ncn(CCCCN3CCN(c4ncccn4)CC3)c2cc1C [Example 24]
ED50 [1]: 36 mg/kg
inhibition in vivo at 40 mg/kg [2]: 59%

c1cnc(N2CCN(CCCCn3cccn3)CC2)nc1 [Example 25]
ED50 [1]: 21 mg/kg
inhibition in vivo at 40 mg/kg [2]: 85%

Cc1nn(CCCCN2CCN(c3ncccn3)CC2)c(C)c1[N+](=O)[O-] [Example 27]
ED50 [1]: 17 mg/kg
inhibition in vivo at 40 mg/kg [2]: 63%

c1cnc(N2CCN(CCCCn3ncc4ccccc43)CC2)nc1 [Example 29]
ED50 [1]: 21 mg/kg
inhibition in vivo at 40 mg/kg [2]: 81%

O=[N+]([O-])c1cnn(CCCCN2CCN(c3ncccn3)CC2)c1 [Example 31]
ED50 [1]: 2.7 mg/kg
inhibition in vivo at 40 mg/kg [2]: 90%

Clc1cnn(CCCCN2CCN(c3ncccn3)CC2)c1 [Example 32]
ED50 [1]: 15 mg/kg
inhibition in vivo at 40 mg/kg [2]: 78%

Cc1cc(-c2ccccc2)n(CCCCN2CCN(c3ncccn3)CC2)n1 [Example 34]
ED50 [1]: 50 mg/kg
inhibition in vivo at 40 mg/kg [2]: 45%

Brc1cnn(CCCCN2CCN(c3ncccn3)CC2)c1 [Example 35]
ED50 [1]: 11 mg/kg
inhibition in vivo at 40 mg/kg [2]: 64%

N#Cc1cnn(CCCCN2CCN(c3ncccn3)CC2)c1 [Example 36]
ED50 [1]: 2.1 mg/kg
inhibition in vivo at 40 mg/kg [2]: 78%

Fc1cnn(CCCCN2CCN(c3ncccn3)CC2)c1 [Example 37]
ED50 [1]: 17 mg/kg
inhibition in vivo at 40 mg/kg [2]: 79%

COc1ccc(-c2cnn(CCCCN3CCN(c4ncccn4)CC3)c2)cc1 [Example 44]
ED50 [1]: 31 mg/kg
inhibition in vivo at 40 mg/kg [2]: 81%

c1ccc(-c2ccc(-c3cnn(CCCCN4CCN(c5ncccn5)CC4)c3)cc2)cc1 [Example 45]
ED50 [1]: 12 mg/kg
inhibition in vivo at 40 mg/kg [2]: 74%

c1cnc(N2CCN(CCCCn3cc(-n4cccc4)cn3)CC2)nc1 [Example 46]
ED50 [1]: 9.5 mg/kg
inhibition in vivo at 40 mg/kg [2]: 92%

c1ccc(-c2cnn(CCCCN3CCN(c4ncccn4)CC3)c2)cc1 [Example 47]
ED50 [1]: 11 mg/kg
inhibition in vivo at 40 mg/kg [2]: 88%

CCCS(=O)(=O)Nc1cnn(CCCCN2CCN(c3ncccn3)CC2)c1 [Example 52]
ED50 [1]: 40 mg/kg
inhibition in vivo at 40 mg/kg [2]: 54%

CCS(=O)(=O)Nc1cnn(CCCCN2CCN(c3ncccn3)CC2)c1 [Example 53]
ED50 [1]: 6.4 mg/kg
inhibition in vivo at 40 mg/kg [2]: 90%

Clc1ncn(CCCCN2CCN(c3ncccn3)CC2)c1Cl [Example 59]
ED50 [1]: 20 mg/kg
inhibition in vivo at 40 mg/kg [2]: 75%

COc1ccc(N2CCN(CCCCn3cc(Cl)cn3)CC2)cc1 [Example 60]
ED50 [1]: 26 mg/kg
inhibition in vivo at 40 mg/kg [2]: 63%

COc1ccc(N2CCN(CCCCn3c(C)nc(Cl)c3Cl)CC2)cc1 [Example 61]
ED50 [1]: 13 mg/kg
inhibition in vivo at 40 mg/kg [2]: 86%

COc1ccccc1N1CCN(CCCCn2cc(Cl)cn2)CC1 [Example 62]
ED50 [1]: 13 mg/kg
inhibition in vivo at 40 mg/kg [2]: 81%

COc1ccccc1N1CCN(CCCCn2c(C)nc(Cl)c2Cl)CC1 [Example 63]
ED50 [1]: 10 mg/kg
inhibition in vivo at 40 mg/kg [2]: 89%

COc1cccc(N2CCN(CCCCn3cc(Cl)cn3)CC2)c1 [Example 64]
ED50 [1]: 20 mg/kg
inhibition in vivo at 40 mg/kg [2]: 68%

COc1ccccc1N1CCN(CCCCn2cccc2)CC1 [Example 66]
ED50 [1]: 27 mg/kg
inhibition in vivo at 40 mg/kg [2]: 65%

c1ccc(N2CCN(CCCCn3cccc3)CC2)cc1 [Example 67]
ED50 [1]: 8.7 mg/kg
inhibition in vivo at 40 mg/kg [2]: 90%

Clc1cnn(CCCCN2CCN(c3ccccc3)CC2)c1 [Example 68]
ED50 [1]: 13 mg/kg
inhibition in vivo at 40 mg/kg [2]: 94%

Cc1nc(Cl)c(Cl)n1CCCCN1CCN(c2ccccc2)CC1 [Example 69]
ED50 [1]: 7.6 mg/kg
inhibition in vivo at 40 mg/kg [2]: 71%

Cc1nc(Cl)c(Cl)n1CCCCN1CCN(c2ccccc2Cl)CC1 [Example 71]
ED50 [1]: 9.1 mg/kg
inhibition in vivo at 40 mg/kg [2]: 73%

Clc1cccc(N2CCN(CCCCn3cc(Cl)cn3)CC2)c1 [Example 72]
ED50 [1]: 21 mg/kg
inhibition in vivo at 40 mg/kg [2]: 88%

Cc1nc(Cl)c(Cl)n1CCCCN1CCN(c2ccccc2C#N)CC1 [Example 73]
ED50 [1]: 4.2 mg/kg
inhibition in vivo at 40 mg/kg [2]: 90%

Cc1nc(Cl)c(Cl)n1CCCCN1CCN(c2ccccc2F)CC1 [Example 74]
ED50 [1]: 5 mg/kg
inhibition in vivo at 40 mg/kg [2]: 94%

N#Cc1ccccc1N1CCN(CCCCn2cc(Cl)cn2)CC1 [Example 75]
ED50 [1]: 8.4 mg/kg
inhibition in vivo at 40 mg/kg [2]: 94%

Cc1nc(Cl)c(Cl)n1CCCCN1CCN(c2cccc(C(F)(F)F)c2)CC1 [Example 76]
ED50 [1]: 2.1 mg/kg
inhibition in vivo at 40 mg/kg [2]: 96%

FC(F)(F)c1cccc(N2CCN(CCCCn3cc(Cl)cn3)CC2)c1 [Example 77]
ED50 [1]: 9.2 mg/kg
inhibition in vivo at 40 mg/kg [2]: 82%

Fc1ccccc1N1CCN(CCCCn2cc(Cl)cn2)CC1 [Example 78]
ED50 [1]: 10 mg/kg
inhibition in vivo at 40 mg/kg [2]: 87%

Clc1cnn(CCCCN2CCN(c3nsc4ccccc34)CC2)c1 [Example 79]
ED50 [1]: 20 mg/kg
inhibition in vivo at 40 mg/kg [2]: 82%

Cc1nc(Cl)c(Cl)n1CCCCN1CCN(c2nsc3ccccc23)CC1 [Example 80]
ED50 [1]: 7.1 mg/kg
inhibition in vivo at 40 mg/kg [2]: 88%

c1ccc2c(N3CCN(CCCCn4cncn4)CC3)nsc2c1 [Example 81]
ED50 [1]: 5.2 mg/kg
inhibition in vivo at 40 mg/kg [2]: 82%

c1ccc2c(c1)ncn2CCCCN1CCN(c2nsc3ccccc23)CC1 [Example 82]
ED50 [1]: 15 mg/kg
inhibition in vivo at 40 mg/kg [2]: 53%
